Entries after “also recorded” stand apart in the source; their conditions may differ.
Experiments:
[1] = Multiple dose study, metabolite PK profiles Day 1 and Day 7
[2] = Single dose study, PK profile of triheptanoin and metabolites; type: in vivo; conditions: single oral gavage dose, Day 1, mini-pigs
Procedure: Single dose study of each arm with full pharmacokinetics (PK) profile through 48 hours post dose was performed to determined when metabolites return to baseline (one week washout between each arm) as well as if acute release of gastrin and cholesystokinin (CCK) hormones cause spasmodic stomach contractions. Blood samples were collected from each arm 0-90 min plus anytime outside this window if gastric distress observed.
More specifically, animals (n=3/sex) were fasted prior to dose and fed 4 hrs post dose. Blood samples for PK analysis of triheptanoin and metabolites were collected pre-dose through 48 hrs post dose.
In FIGS. 1-21, animals were administered a single oral gavage dose level of a triheptanoin oil sample (i.e., the oil) or exemplary solid samples comprising triheptanoin oil in accordance with the present invention. The two exemplary solid compositions comprise 1) 60%:20%:20% of triheptanoin oil:Cab-O-Sil:cellulose acetate (i.e., the Powder-ER); and 2) 80%:20% of triheptanoin oil:Cab-O-Sil (i.e., the Powder), respectively.

[3] = Storage stability of triheptanoin oil; type: physicochemical; conditions: stored at room temperature and protected from light
Description: In some embodiments, the triheptanoin oil as described herein is a colorless oil of low viscosity and is odorless and tasteless. Triheptanoin oil as described herein is typically stored at room temperature and protected from light, and its stability can exceed 24 months under such conditions.

mini-pigs = assay: Multiple dose study, vomiting and gastric distress observations

Propionylglycine levels ([1]; Day 1 and Day 7, mini-pigs): essentially zero
pimelic acid levels ([1]; Day 1 and Day 7, mini-pigs): highest amount of pimelic acid
conversion of triheptanoin to C7 ([1]; mini-pigs): All triheptanoin oil was converted to C7
triheptanoin levels ([1]; mini-pigs): no triheptanoin values
levels of ketones (C4-OH, C5-OH) [2]: comparable levels of ketones
stability [3]: exceed 24 months
Structure (SMILES): CCCCCCC(=O)OCC(COC(=O)CCCCCC)OC(=O)CCCCCC [triheptanoin oil, propane-1,2,3-triyl triheptanoate]
vomiting or gastric distress observed (mini-pigs): Day 1: Animal #6501 vomited ˜3 hours post dose; also recorded: Day 1: Animal #6516 vomited ˜3 hours post dose; also recorded: Day 5: Animal #6509 gastric distressed observed

Source: US12551461B2, “Compositions of triglycerides and uses thereof” (Ultragenyx Pharmaceutical Inc., priority 2013, dated 2026)
